Data published in BigSolDB 2.1.

CN1CCN(c2c(F)cc3c(=O)c(C(=O)O)cn4c3c2OCN4C)CC1
solubility (mole fraction)
Settings	283.15 K	288.15 K	293.15 K	298.15 K	303.15 K	308.15 K	313.15 K	318.15 K	323.15 K	328.15 K
in 1,4-dioxane	–	0.000114	0.000132	0.000153	0.000188	0.00023	0.00028	0.000348	0.000427	0.000512
in THF	–	0.000432	0.000508	0.000591	0.00068	0.000777	0.000887	0.001	0.00113	0.00125
in acetone	0.000219	0.000266	0.000316	0.000367	0.000425	0.000488	0.00057	0.000678	0.000796	–
in acetonitrile	0.000122	0.000147	0.000172	0.000213	0.00025	0.000298	0.000345	0.000422	0.000509	–
in ethanol	6.66e-05	7.84e-05	9.47e-05	0.000117	0.000144	0.000175	0.000217	0.000264	0.000326	–
in ethyl acetate	0.000154	0.000172	0.000197	0.000226	0.000255	0.000288	0.000326	0.000378	0.000432	–
in isopropanol	5.13e-05	6.16e-05	7.5e-05	9.22e-05	0.000107	0.00013	0.000164	0.000204	0.000259	–
in methanol	0.000127	0.000147	0.000173	0.000204	0.000249	0.000295	0.000354	0.000435	0.000521	–
in n-butanol	8.77e-05	0.0001	0.000116	0.00014	0.000169	0.000204	0.000254	0.000316	0.000408	–
in n-propanol	8.29e-05	9.58e-05	0.000114	0.000136	0.000164	0.000202	0.000253	0.000315	0.000391	–
in tert-amyl alcohol	7.86e-05	9.12e-05	0.000107	0.000122	0.00014	0.00017	0.000202	0.00024	0.00029	–
in toluene	4.91e-05	6.13e-05	7.24e-05	8.74e-05	0.000102	0.000117	0.000135	0.000155	0.00018	–
